Laboratory results published in patent publication EP4745134A1 (Jiangsu Yahong Meditech Co., Ltd., priority 2023, dated 2025).

Key:
[1] = system: HCT116-WT cells; experiment: Inhibitory activity against cell proliferation (CellTiter Glo, 6 days), HCT116-WT; assay type: cell-based; details: 144 h, HCT116-WT cells, 6 days, CellTiter Glo; read-out: HCT116-WT IC50
Method in brief: (§1)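 Following overnight attachment of 250 cells per well in McCoy's 5A medium with 10% FBS, compounds spanning 8 concentrations (4-fold, top 10000 nM) were applied for 6 days. Growth inhibition IC50 was derived from luminescent ATP signal.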

[2] = target: PRMT5-MTA (Homo sapiens, UniProt O14744); experiment: Enzymatic inhibitory activity against PRMT5-MTA (AlphaScreen); assay type: biochemical; details: read-out: IC50
Chain of PRMT5-MTA (O14744 whole entry): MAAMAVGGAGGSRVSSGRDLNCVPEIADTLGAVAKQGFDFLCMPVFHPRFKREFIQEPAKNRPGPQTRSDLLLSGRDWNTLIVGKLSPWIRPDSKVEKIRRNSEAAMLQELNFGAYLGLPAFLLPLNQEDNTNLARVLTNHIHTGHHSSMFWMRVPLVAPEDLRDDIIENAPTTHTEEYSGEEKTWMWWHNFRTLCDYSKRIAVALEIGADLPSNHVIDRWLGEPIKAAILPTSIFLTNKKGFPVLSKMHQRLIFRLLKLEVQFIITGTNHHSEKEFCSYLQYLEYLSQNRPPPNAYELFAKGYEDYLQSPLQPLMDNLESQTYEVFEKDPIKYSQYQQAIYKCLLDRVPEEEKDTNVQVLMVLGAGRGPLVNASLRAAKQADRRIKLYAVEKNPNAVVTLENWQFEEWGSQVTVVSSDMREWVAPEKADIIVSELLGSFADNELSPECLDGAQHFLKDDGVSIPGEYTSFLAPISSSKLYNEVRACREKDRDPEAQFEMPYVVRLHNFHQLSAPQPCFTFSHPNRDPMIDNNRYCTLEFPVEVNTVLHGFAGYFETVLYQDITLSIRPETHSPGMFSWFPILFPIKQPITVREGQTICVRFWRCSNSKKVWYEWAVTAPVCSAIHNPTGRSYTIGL
Chain of PRMT5-MTA (Q9BQA1 whole entry partner): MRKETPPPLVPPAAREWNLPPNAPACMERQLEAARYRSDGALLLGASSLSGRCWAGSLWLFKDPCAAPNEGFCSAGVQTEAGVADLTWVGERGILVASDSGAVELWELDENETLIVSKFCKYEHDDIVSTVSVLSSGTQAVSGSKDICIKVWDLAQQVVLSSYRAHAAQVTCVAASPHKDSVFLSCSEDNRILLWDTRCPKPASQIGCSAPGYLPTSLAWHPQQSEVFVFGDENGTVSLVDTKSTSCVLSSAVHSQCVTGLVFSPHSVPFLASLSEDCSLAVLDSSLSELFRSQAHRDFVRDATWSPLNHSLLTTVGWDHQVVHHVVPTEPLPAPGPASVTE
Method in brief: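 PRMT5/[…] (1 nM) was preincubated for 30 min at room temperature with 1 µM […] and 2.5 µM SAM, then exposed to compound (10-point, 3-fold from 1000 nM) for 15 min at 23 °C. Histone H4 substrate (5 nM) was added and reacted for 45 min at 23 °C. Symmetric dimethyl-R3 H4 was detected by AlphaScreen and IC50 calculated.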

[3] = system: HCT116 MTAP KO cells; experiment: Inhibitory activity against cell proliferation (CellTiter Glo, 6 days), HCT116 MTAP KO; assay type: cell-based; details: for IC50: Homo sapiens, HCT-116, 144 h, HCT116 MTAP KO cells, 6 days, CellTiter Glo, read-out: HCT116 MTAP KO IC50; for Selectivity HCT 116-WT/ HCT116 MTAP KO: ratio of IC50 HCT116-WT / HCT116 MTAP KO
Method in brief: as §1

| SMILES | IC50 [1] [nM] | IC50 [2] [nM] | IC50 [3] [nM] | Selectivity HCT 116-WT/ HCT116 MTAP KO [3] |
| --- | --- | --- | --- | --- |
| Cc1cc2cc(C(=O)N(Cc3ccc(-c4cnn(C5CCC5)c4)cn3)N(C)c3ncccn3)ccc2nc1N [Example 149, 2-amino-N-((5-(1-cyclobutyl-1H-pyrazol-4-yl)pyridin-2-yl)methyl)-N',3-dimethyl-N'-(pyrimidin-2-yl)quinoline-6-carbohydr azide] | 1590 | 2.9 | 99 | 16.02 |
| COCc1ncsc1-c1ccc(CN(C(=O)c2ccc3nc(N)c(C)cc3c2)N(C)c2ncccn2)nc1 [Example 226, 2-amino-N-((5-(4-(methoxymethyl)thiazol-5-yl)pyridin-2-yl)methyl)-N',3-dimethyl-N'-(pyrimidin-2-yl)quinoline-6-carbohydrazide] | 891 | 5 | 28 | 31.82 |
| Cn1ncc2c(N)nc3cc(F)c(C(=O)N4CCCN4c4ccc(C(F)(F)F)cn4)cc3c21 [Example 340, (4-amino-7-fluoro-1-methyl-1H-pyrazolo [4,3-c]quinolin-8-yl)(2-(5-(trifluoromethyl)pyridin-2-yl)pyrazolidin-1-yl)methanone] | > 10000 | 4.2 | 295 |  |
| Cc1cc2cc(C(=O)N(Cc3ccc(-c4scnc4C)cn3)N(C)c3ncccn3)ccc2nc1N [Example 235, 2-amino-N',3-dimethyl-N-((5-(4-methylthiazol-5-yl)pyridin-2-yl)methyl)-N'-(pyrimidin-2-yl)quinoline-6-carbohydrazide] | 183 | 3.8 | 5.7 | 32.11 |
| Cc1ccnc(N(C)N(Cc2ccc(C(F)(F)F)cn2)C(=O)c2ccc3nc(N)c(C)cc3c2)n1 [Example 49, 2-amino-N',3-dimethyl-N'-(4-methylpyrimidin-2-yl)-N-((5-(trifluoromethyl)pyridin-2-yl)methyl)quinoline-6-carbohydrazide] | 1770 | 2.2 | 80 | 22.18 |
| Cc1cc2nc(N)c3cnn(C)c3c2cc1C(=O)N1CC(C)CN1c1ncc(C#CCO)cc1F (stereo not drawn) [Example 492, (4-amino-1,7-dimethyl-1H-pyrazolo[4,3-c]quinolin-8-yl)(2-(3-fluoro-5-(3-hydroxyprop-1-yn-1-yl)pyridin-2-yl)-4-methylpyrazolidin-1-yl)methanone] | 1940 | 3.3 | 37 | 52.49 |
| CC1CN(C(=O)c2cc3c(cc2Cl)nc(N)c2cnn(C)c23)N(c2cccc(F)c2F)C1 (stereo not drawn) [Example 402, (4-amino-7-chloro-1-methyl-1H-pyrazolo [4,3-c]quinolin-8-yl)(2-(2,3-difluorophenyl)-4-methylpyrazolidin-1-yl)methanone] | 569 | 6.4 | 24 | 23.71 |
| Cc1cc2cc(C(=O)N(Cc3ccc(C(F)(F)F)cn3)N(c3nccc4nccnc34)C3CC3)ccc2nc1N [Example 65, 2-amino-N'-cyclopropyl-3-methyl-N'-(pyrido[3,4-b]pyrazin-5-yl)-N-((5-(trifluoromethyl)pyridin-2-yl)methyl)quinoline-6-carbohydrazide] | 2150 | 4 | 48 | 44.77 |
| Cc1cc2nc(N)c3c(C)nn(C)c3c2cc1C(=O)N1CC(C)CN1c1ncccc1F (stereo not drawn) [Example 509, (4-amino-1,3,7-trimethyl-1H-pyrazolo[4,3-c]quinolin-8-yl)(2-(3-fluoropyridin-2-yl)-4-methylpyrazolidin-1-yl) methanone] | > 10000 | 4.3 | 443 |  |
| CCOC1CN(C(=O)c2cc3c(cc2C)nc(N)c2cnn(C)c23)N(c2ncccc2F)C1 (stereo not drawn) [Example 453, (4-amino-1,7-dimethyl-1H-pyrazolo[4,3-c]quinolin-8-yl)(4-ethoxy-2-(3-fluoropyridin-2-yl)pyrazolidin-1-yl)methanone] | 523 | 5.2 | 23 | 22.74 |
| Cc1cc2cc(C(=O)N(Cc3ccc(-c4cn[nH]c4)cn3)N(C)c3ncccn3)ccc2nc1N [Example 200, N-((5-(1H-pyrazol-4-yl)pyridin-2-yl)methyl)-2-amino-N',3-dimethyl-N'-(pyrimidin-2-yl)quinoline-6-carbohydrazide] | 1240 | 1.7 | 36 | 34.36 |
| Cc1cc2cc(C(=O)N(Cc3ccc(C4CC4)cn3)N(C)c3ncccc3F)ccc2nc1N [Example 164, 2-amino-N-((5-cyclopropylpyridin-2-yl)methyl)-N'-(3-fluoropyridin-2-yl)-N',3-di methylquinoline-6-carbohydrazide] | 443 | 0.9 | 20 | 22.15 |
| [2H]C([2H])([2H])c1cc2cc(C(=O)N(Cc3ccc(-c4cnn(C)c4)cn3)N(C)c3ncccn3)ccc2nc1N [Example 166, 2-amino-N'-methyl-3-(methyl-D3)-N-((5-(1-methyl-1H-pyrazol-4-yl)pyridin-2-yl)methyl)-N'-(pyrimidin-2-yl)quinoline-6-carbohydrazide] | 1250 | 4.8 | 68 | 18.32 |
| Cc1cc2cc(C(=O)N(Cc3ccc(-c4ccc(C(F)(F)F)nc4)cn3)N(C)c3ncccn3)ccc2nc1N [Example 154, 2-amino-N',3-dimethyl-N'-(pyrimidin-2-y 1)-N-((6'-(trifluoromethyl)-[3,3'-bipyridine]-6-yl)methyl)quinoline-6-carbohydrazide] | 833 | 1.6 | 60 | 13.88 |
| Cc1ncc(-c2ccc(CN(C(=O)c3ccc4nc(N)c(C)cc4c3)N(C)c3ncccn3)nc2)cn1 [Example 180, 2-amino-N',3-dimethyl-N-((5-(2-methylpyrimidin-5-yl)pyridin-2-yl)methyl)-N'-(pyrimidin-2-yl)quinoline-6-carbohydrazide] | 1880 | 3.2 | 41 | 45.73 |
| Cc1cc2cc(C(=O)N(Cc3ccc(-c4ccncc4)cn3)N(C)c3ncccn3)ccc2nc1N [Example 173, N-([3,4'-bipyridine]-6-ylmethyl)-2-amino -N',3-dimethyl-N'-(pyrimidin-2-yl)quinoline-6-carbohydrazide] | 633 | 1.9 | 21 | 30.14 |
| Cc1nc(C)c(-c2ccc(CN(C(=O)c3ccc4nc(N)c(C)cc4c3)N(c3ncccn3)C3CC3)nc2)s1 [Example 158, 2-amino-N'-cyclopropyl-N-((5-(2,4-dimethylthiazol-5-yl)pyridin-2-yl)methyl)-3-m ethyl-N'-(pyrimidin-2-yl)quinoline-6-carb ohydrazide] | 225 | 4.5 | 12 | 18.75 |
| Cn1ncc2c(N)nc3cc(Cl)c(C(=O)N4CC(C)(F)CN4c4ncc(Cl)cc4F)cc3c21 (stereo not drawn) [Example 421, (4-amino-7-chloro-1-methyl-1H-pyrazolo [4,3-c]quinolin-8-yl)(2-(5-chloro-3-fluoropyridin-2-yl)-4-fluoro-4-methylpyrazolidin-1-yl)methanone] | 669 | 3.3 | 29 | 23.07 |
| Cc1cc2cc(C(=O)N(Cc3ccc(C(F)(F)F)cn3)N(C)c3ncccc3Cl)ccc2nc1N [Example 66, 2-amino-N'-(3-chloropyridin-2-yl)-N',3-d imethyl-N-((5-(trifluoromethyl)pyridin-2-yl)methyl)quinoline-6-carbohydrazide] | 1990 | 3.9 | 124 | 16.06 |
| C=C1CN(C(=O)c2cc3c(cc2Cl)nc(N)c2cnn(C)c23)N(c2ncccc2F)C1 [Example 433, (4-amino-7-chloro-1-methyl-1H-pyrazolo [4,3-c]quinolin-8-yl)(2-(3-fluoropyridin-2-yl)-4-methylenepyrazolidin-1-yl)methanone] | 1110 | 3.8 | 33 | 33.64 |
| Cc1cc2cc(C(=O)N(Cc3ccc(C(F)(F)F)cn3)N(C)c3nccc4sccc34)ccc2nc1N [Example 271, 2-amino-N',3-dimethyl-N'-(thieno[3,2-c]pyridin-4-yl)-N-((5-(trifluoromethyl)pyridin-2-yl)methyl)quinoline-6-carbohydrazide] | 1190 | 2.7 | 89 | 13.42 |
| Cc1cc2cc(C(=O)N(Cc3ccc(-c4cnn(C(C)C)c4)cn3)N(C)c3ncccn3)ccc2nc1N [Example 203, 2-amino-N-((5-(1-isopropyl-1H-pyrazol-4-yl)pyridin-2-yl)methyl)-N',3-dimethyl-N'-(pyrimidin-2-yl)quinoline-6-carbohydrazide] | 1030 | 1.8 | 40 | 25.65 |
| CCOc1ccc(CN(C(=O)c2ccc3nc(N)c(C)cc3c2)N(C)c2ncccn2)nc1 [Example 264, 2-amino-N-((5-ethoxypyridin-2-yl)methyl)-N',3-dimethyl-N'-(pyrimidin-2-yl)quin oline-6-carbohydrazide] | 2480 | 1 | 138 | 17.97 |
